{
  "source": "patent US20240336622A1",
  "about": "(The Board of Regents of The University of Texas System, priority 2021, published 2024)",
  "data": [
    {"tested_on": "UWB1 cells", "assay": "cells", "conditions": "read-out: IC50 (μM) UWB1 cells", "units": {"IC50": "µM"}, "values": [
      {"molecule": "COC(=O)C[C@H]1[C@@H]2CC3=C(C)[C@H](c4ccc(O[Si](C)(C)C(C)(C)C)cc4)C[C@H]3O[C@@H]2[C@@H]2OC(=O)[C@]3(C)C=CC(=O)[C@@]1(C)[C@@H]23", "note": "[S-118]", "IC50": 0.0815},
      {"molecule": "COC(=O)C[C@H]1[C@@H]2CC3=C(C)[C@@H](c4ccc(CO[Si](C)(C)C(C)(C)C)cc4)C[C@@H]3O[C@@H]2[C@@H]2OC(=O)[C@]3(C)C=CC(=O)[C@@]1(C)[C@@H]23", "note": "[S-149]", "IC50": 0.163},
      {"molecule": "COC(=O)C[C@H]1[C@@H]2CC3=C(C)[C@@H](c4ccc(O[Si](C)(C)C(C)(C)C)cc4)C[C@H]3O[C@@H]2[C@@H]2OC(=O)[C@]3(C)C=CC(=O)[C@@]1(C)[C@@H]23", "note": "[S-121]", "IC50": 0.19},
      {"molecule": "COC(=O)C[C@H]1[C@@H]2CC3=C(C)[C@H](c4ccccc4O[Si](C)(C)C(C)(C)C)C[C@H]3O[C@@H]2[C@@H]2OC(=O)[C@]3(C)C=CC(=O)[C@@]1(C)[C@@H]23", "note": "[S-129]", "IC50": 0.163},
      {"molecule": "COC(=O)C[C@H]1[C@@H]2CC3=C(C)CC[C@@H]3O[C@@H]2[C@@H]2OC(=O)[C@]3(C)C=CC(=O)[C@@]1(C)[C@@H]23", "note": "[S-98]", "IC50": 0.83},
      {"molecule": "COC(=O)C[C@H]1[C@@H]2CC3=C(C)[C@H](c4cccc(O[Si](C)(C)C(C)(C)C)c4)C[C@@H]3O[C@@H]2[C@@H]2OC(=O)[C@]3(C)C=CC(=O)[C@@]1(C)[C@@H]23", "note": "[S-113]", "IC50": 0.216},
      {"molecule": "COC(=O)C[C@H]1[C@@H]2CC3=C(C)[C@H](c4ccccc4O[Si](C)(C)C(C)(C)C)C[C@@H]3O[C@@H]2[C@@H]2OC(=O)[C@]3(C)C=CC(=O)[C@@]1(C)[C@@H]23", "note": "[S-127]", "IC50": 0.927}
    ]},
    {"tested_on": "UWB1 cells", "assay": "cells", "conditions": "read-out: IC50 (μM) UWB1 cells, UWB1 cell viability", "units": {"IC50": "µM"}, "values": [
      {"molecule": "C=C1[C@H](O[C@H]2CCC(C(C)C)=C2I)[C@@H]2OC(=O)[C@]3(C)C=CC(=O)[C@@](C)([C@@H]23)[C@H]1CC(=O)OC", "note": "[S-111]", "IC50": 0.255},
      {"molecule": "COC(=O)C[C@H]1[C@]2(C)C3=C(C)[C@H](c4ccoc4-c4ccccc4OC)C[C@H]3O[C@@H]2[C@H](O)[C@H]2C(C)=CCC(=O)[C@]12C", "note": "[S-56]", "IC50": "> 10"},
      {"molecule": "COC(=O)C[C@H]1[C@@H]2CC3=C(C)[C@H](c4ccccc4)C[C@@H]3O[C@@H]2[C@@H]2OC(=O)[C@]3(C)C=CC(=O)[C@@]1(C)[C@@H]23", "note": "[S-102]", "IC50": 0.17},
      {"molecule": "COC(=O)C[C@H]1[C@@H]2CC3=C(C)[C@@H](c4ccc(C(=O)NC(C)(C)C)cc4)C[C@@H]3O[C@@H]2[C@@H]2OC(=O)[C@]3(C)C=CC(=O)[C@@]1(C)[C@@H]23", "note": "[S-153]", "IC50": 0.245},
      {"molecule": "COC(=O)C[C@H]1[C@@H]2CC3=C(C)[C@H](c4ccoc4)C[C@@H]3O[C@@H]2[C@@H]2OC(=O)[C@]3(C)C=CC(=O)[C@@]1(C)[C@@H]23", "note": "[S-57]", "IC50": 0.591},
      {"molecule": "COC(=O)C[C@H]1[C@]2(C)C3=C(C)[C@H](C4=CCOC4=O)C[C@H]3O[C@@H]2[C@@H]2OC(=O)[C@]3(C)C=CC(=O)[C@@]1(C)[C@@H]23", "note": "[S-131]", "IC50": 1.18},
      {"molecule": "COC(=O)C[C@@H]1[C@@]2(C)C(=O)C=C[C@@]3(C)C(=O)O[C@@H]([C@H]4O[C@H]5CC(c6ccoc6)=C(C)[C@]56C[C@@]416)[C@H]23", "note": "[S-65]", "IC50": "> 10"},
      {"molecule": "CC1=C2C[C@@H]3[C@H](O[C@@H]2C[C@H]1c1ccoc1)[C@@H]1OC(=O)[C@]2(C)C=CC(=O)[C@@](C)([C@@H]12)[C@H]3CC(=O)OC(C)(C)C", "note": "[S-155]", "IC50": 0.306},
      {"molecule": "COC(=O)C[C@H]1[C@@H]2CC3=C(C)[C@@H](c4ccc(OS(=O)(=O)c5ccc(C)cc5)cc4)C[C@@H]3O[C@@H]2[C@@H]2OC(=O)[C@]3(C)C=CC(=O)[C@@]1(C)[C@@H]23", "note": "[S-140]", "IC50": 0.119},
      {"molecule": "C#CCOC(=O)c1ccc(-c2occc2[C@@H]2C[C@H]3O[C@@H]4[C@@H]5OC(=O)[C@]6(C)C=CC(=O)[C@](C)([C@@H](CC(=O)OC)[C@]4(C)C3=C2C)[C@@H]56)cc1", "note": "[S-112a]", "IC50": 0.198},
      {"molecule": "COC(=O)C[C@H]1[C@@H]2CC3=C(C)[C@@H](c4ccc(-c5cc(C(C)(C)C)cc(C(C)(C)C)c5)cc4)C[C@@H]3O[C@@H]2[C@@H]2OC(=O)[C@]3(C)C=CC(=O)[C@@]1(C)[C@@H]23", "note": "[S-137]", "IC50": 0.169},
      {"molecule": "COC(=O)C[C@H]1[C@@H]2CC3=C(C)[C@@H](c4ccc(CO)cc4)C[C@@H]3O[C@@H]2[C@@H]2OC(=O)[C@]3(C)C=CC(=O)[C@@]1(C)[C@@H]23", "note": "[S-150]", "IC50": 0.351},
      {"molecule": "CC1=C2[C@@H](C[C@H]1c1ccoc1)O[C@@H]1[C@@H]3OC(=O)[C@]4(C)C=CC(=O)[C@](C)([C@@H](CC(=O)OC(C)(C)C)[C@]21C)[C@@H]34", "note": "[S-154]", "IC50": 0.453},
      {"molecule": "COC(=O)C[C@H]1[C@]2(C)C3=C(C)[C@H](c4ccoc4-c4cccc5c4ccn5C)C[C@H]3O[C@@H]2[C@@H]2OC(=O)[C@]3(C)C=CC(=O)[C@@]1(C)[C@@H]23", "note": "[S-42]", "IC50": 0.144},
      {"molecule": "COC(=O)C[C@H]1[C@]2(C)C3=C(C)CC[C@H]3O[C@@H]2[C@@H]2OC(=O)[C@]3(C)C=CC(=O)[C@@]1(C)[C@@H]23", "note": "[S-97]", "IC50": 1.45},
      {"molecule": "COC(=O)C[C@H]1[C@]2(C)C3=C(C)[C@H](c4ccoc4Br)C[C@H]3O[C@@H]2[C@@H]2OC(=O)[C@]3(C)C=CC(=O)[C@@]1(C)[C@@H]23", "note": "[S-41]", "IC50": 0.465},
      {"molecule": "COC(=O)C[C@H]1[C@]2(C)C3=C(C)[C@H](c4ccoc4-c4ccc(C(=O)O)cc4)C[C@H]3O[C@@H]2[C@@H]2OC(=O)[C@]3(C)C=CC(=O)[C@@]1(C)[C@@H]23", "note": "[S-58]", "IC50": 1.79},
      {"molecule": "COC(=O)C[C@H]1[C@@H]2CC3=C(C)[C@H](c4ccc(OC(=O)C(C)(C)C)cc4)C[C@@H]3O[C@@H]2[C@@H]2OC(=O)[C@]3(C)C=CC(=O)[C@@]1(C)[C@@H]23", "note": "[S-126]", "IC50": 0.141},
      {"molecule": "COC(=O)C[C@H]1[C@@H]2CC3=C(C)[C@H](c4ccc(C(C)(C)C)cc4)C[C@@H]3O[C@@H]2[C@@H]2OC(=O)[C@]3(C)C=CC(=O)[C@@]1(C)[C@@H]23", "note": "[S-142]", "IC50": 0.145},
      {"molecule": "COC(=O)C[C@H]1[C@]2(C)C3=C(C)[C@H](c4ccoc4)C[C@H]3O[C@@H]2[C@H](OC(C)=O)[C@H]2C(C)=CCC(=O)[C@]12C", "note": "[S-62, nimbinene]", "IC50": "> 10"},
      {"molecule": "COC(=O)C[C@H]1[C@]2(C)C3=C(C)[C@H](c4ccoc4)C[C@H]3O[C@@H]2[C@H](O)[C@H]2C(C)=CCC(=O)[C@]12C", "note": "[S-61, 6-deacetylnimbinene]", "IC50": "> 10"},
      {"molecule": "COC(=O)C[C@H]1[C@]2(C)C3=C(C)[C@H](c4ccoc4-c4ccc(C(=O)NC(C)(C)C)cc4)C[C@H]3O[C@@H]2[C@@H]2OC(=O)[C@]3(C)C=CC(=O)[C@@]1(C)[C@@H]23", "note": "[S-52]", "IC50": 0.199},
      {"molecule": "COC(=O)C[C@H]1[C@]2(C)C3=C(C)[C@H](c4ccoc4-c4ccc(C(=O)OC)cc4)C[C@H]3O[C@@H]2[C@@H]2OC(=O)[C@]3(C)C=CC(=O)[C@@]1(C)[C@@H]23", "note": "[S-59]", "IC50": 0.203},
      {"molecule": "COC(=O)C[C@H]1[C@]2(C)C3=C(C)[C@H](c4ccoc4-c4ccoc4)C[C@H]3O[C@@H]2[C@@H]2OC(=O)[C@]3(C)C=CC(=O)[C@@]1(C)[C@@H]23", "note": "[S-47]", "IC50": 0.296},
      {"molecule": "COC(=O)C[C@H]1[C@]2(C)C3=C(C)[C@@H](c4ccc(-c5cc(C(C)(C)C)cc(C(C)(C)C)c5)cc4)C[C@H]3O[C@@H]2[C@@H]2OC(=O)[C@]3(C)C=CC(=O)[C@@]1(C)[C@@H]23", "note": "[S-135]", "IC50": 0.185},
      {"molecule": "COC(=O)C[C@H]1[C@]2(C)C3=C(C)[C@H](c4ccc(OC(=O)C(C)(C)C)cc4)C[C@H]3O[C@@H]2[C@@H]2OC(=O)[C@]3(C)C=CC(=O)[C@@]1(C)[C@@H]23", "note": "[S-124]", "IC50": 0.564},
      {"molecule": "COC(=O)C[C@H]1[C@@H]2CC3=C(C)[C@@H](c4ccoc4)C[C@@H]3O[C@@H]2[C@@H]2OC(=O)[C@]3(C)C=CC(=O)[C@@]1(C)[C@@H]23", "note": "[S-99]", "IC50": 0.88}
    ]}
  ]
}
